Test results reported in PMC7288026, “Novel Class of Chalcone Oxime Ethers as Potent Monoamine Oxidase-B and Acetylcholinesterase Inhibitors” (Molecules, 2020).
Where “and” joins values, the source holds several entries; their conditions need not be identical. Identical values can stand only once. Like-named read-outs stand apart in the source and are kept apart here.

Legend:
[1] = biological target: T1, recombinant hMAO-A (Homo sapiens, UniProt P21397); experiment: MAO-A inhibition assay (kynuramine substrate); format: biochemical; settings: for IC50: mean ± standard error of duplicates, reference compounds after 30 min preincubation with enzyme
T1 construct: purchased Sigma-Aldrich
T1 sequence (P21397 1-527): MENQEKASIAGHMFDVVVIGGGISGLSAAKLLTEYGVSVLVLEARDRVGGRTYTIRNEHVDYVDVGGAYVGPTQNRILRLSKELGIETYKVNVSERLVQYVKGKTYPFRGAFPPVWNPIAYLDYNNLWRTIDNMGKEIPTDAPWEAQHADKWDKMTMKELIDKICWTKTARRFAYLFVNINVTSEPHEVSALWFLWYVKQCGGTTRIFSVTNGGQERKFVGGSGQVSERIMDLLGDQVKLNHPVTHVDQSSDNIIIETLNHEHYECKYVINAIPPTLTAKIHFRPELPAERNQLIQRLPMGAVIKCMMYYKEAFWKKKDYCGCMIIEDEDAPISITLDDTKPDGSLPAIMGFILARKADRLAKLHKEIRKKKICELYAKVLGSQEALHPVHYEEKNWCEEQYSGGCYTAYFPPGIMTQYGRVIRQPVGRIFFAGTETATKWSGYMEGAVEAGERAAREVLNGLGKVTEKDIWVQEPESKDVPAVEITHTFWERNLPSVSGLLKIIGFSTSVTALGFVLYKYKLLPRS
Method: (§1) Recombinant hMAO-A and hMAO-B activities were assayed while using kynuramine (0.06 mM) and benzylamine (0.3 mM) as substrates, respectively, as described previously. […] AChE activity was measured using Type VI-S from Electrophorus electricus in the presence of 0.5 mM 5,5’-dithiobis(2-nitrobenzoic acid) and 0.5 mM acetylthiocholine iodide, as described previously. Enzymes and chemicals were purchased from Sigma–Aldrich (St. Louis, MO, USA).
AChE inhibitory activities were also determined, except at a concentration of 10 µM. […] Kinetic experiments were carried out at five substrate and three inhibitor concentrations.

[2] = biological target: T2, MAO-B (Homo sapiens, UniProt P27338); experiment: biochemical; settings: for SI (selectivity index, ratio of IC50 MAO-A to MAO-B): MAO-A vs. MAO-B IC50 ratio; for IC50: mean ± standard error of duplicates, reference compounds after 30 min preincubation with enzyme, read-out: IC50 (µM) MAO-B; for remaining activity at 1 µM: read-out: Residual Activity (%) MAO-B (1.0 µM)
T2 construct: purchased Sigma-Aldrich
T2 sequence (P27338 1-520): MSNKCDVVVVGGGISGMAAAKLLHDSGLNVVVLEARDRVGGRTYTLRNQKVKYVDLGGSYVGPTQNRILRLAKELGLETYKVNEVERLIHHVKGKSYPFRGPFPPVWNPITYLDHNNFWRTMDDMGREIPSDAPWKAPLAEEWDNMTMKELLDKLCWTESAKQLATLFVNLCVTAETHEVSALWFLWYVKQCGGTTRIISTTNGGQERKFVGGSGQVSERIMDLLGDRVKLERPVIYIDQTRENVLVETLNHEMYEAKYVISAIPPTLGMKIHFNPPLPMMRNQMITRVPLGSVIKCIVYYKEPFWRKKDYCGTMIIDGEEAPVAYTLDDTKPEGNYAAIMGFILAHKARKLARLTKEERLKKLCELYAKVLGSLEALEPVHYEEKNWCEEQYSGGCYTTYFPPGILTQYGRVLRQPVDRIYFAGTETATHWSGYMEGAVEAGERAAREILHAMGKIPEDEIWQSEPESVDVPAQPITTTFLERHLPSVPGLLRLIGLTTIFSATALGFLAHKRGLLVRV
Method: as §1, with “USA). […]” for “USA).”

[3] = biological target: T3, AChE (Type VI-S from Electrophorus electricus) (Electrophorus electricus, UniProt O42275); experiment: AChE inhibition assay (DTNB / acetylthiocholine iodide); format: biochemical; settings: for remaining activity at 10 µM / Residual Activity (%) AChE (10 µM): compound at 10 µM, mean ± standard error of duplicate experiments; for remaining activity at 10 µM: read-out: Residual Activity (%) AChE (10 µM)
T3 construct: purchased Sigma-Aldrich Type VI-S
Method: AChE activity was measured using Type VI-S from Electrophorus electricus in the presence of 0.5 mM 5,5’-dithiobis(2-nitrobenzoic acid) and 0.5 mM acetylthiocholine iodide, as described previously. Enzymes and chemicals were purchased from Sigma–Aldrich (St. Louis, MO, USA).
Kinetic experiments were carried out at five substrate and three inhibitor concentrations.

[4] = compound at 1.0 µM, mean ± standard error of duplicate experiments, read-out: Residual Activity (%) MAO-A (1.0 µM)
[5] = compound at 1.0 µM, mean ± standard error of duplicate experiments

T3 sequence (O42275 24-633): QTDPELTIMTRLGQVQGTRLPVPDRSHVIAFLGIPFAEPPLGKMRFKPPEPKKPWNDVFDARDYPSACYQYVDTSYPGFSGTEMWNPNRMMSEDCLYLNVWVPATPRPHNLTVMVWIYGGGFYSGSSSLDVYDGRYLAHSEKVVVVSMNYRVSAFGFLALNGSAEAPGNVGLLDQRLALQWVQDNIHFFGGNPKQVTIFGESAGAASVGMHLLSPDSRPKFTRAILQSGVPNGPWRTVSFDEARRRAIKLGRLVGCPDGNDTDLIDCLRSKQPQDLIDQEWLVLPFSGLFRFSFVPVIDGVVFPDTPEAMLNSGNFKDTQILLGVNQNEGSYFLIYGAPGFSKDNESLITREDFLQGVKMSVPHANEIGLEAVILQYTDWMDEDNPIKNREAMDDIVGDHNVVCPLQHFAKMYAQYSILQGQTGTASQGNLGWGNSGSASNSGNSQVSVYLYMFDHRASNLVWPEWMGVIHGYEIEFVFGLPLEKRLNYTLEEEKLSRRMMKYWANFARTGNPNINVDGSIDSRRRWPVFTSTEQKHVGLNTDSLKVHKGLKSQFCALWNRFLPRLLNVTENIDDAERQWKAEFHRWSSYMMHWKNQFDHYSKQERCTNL

Compound	remaining activity at 1 µM [1, 4] [%]	IC50 [1] [µM]	SI (selectivity index, ratio of IC50 MAO-A to MAO-B) [2]	IC50 [2] [µM]	remaining activity at 1 µM [2] [%]	IC50 [3] [µM]	remaining activity at 10 µM [3] [%]	Residual Activity (%) AChE (10 µM) [3] [%]	Residual Activity (%) MAO-A (1.0 µM) ([1]; compound at 1.0 µM, mean ± standard error of duplicate experiments, 1 µM) [%]	MAO-A potency relative to pargyline (times more potent) ([1]; ratio of IC50 values) [times]	MAO-A potency relative to toloxatone (times more potent) ([1]; ratio of IC50 values) [times]	remaining activity at 1 µM [2, 5] [%]	MAO-B potency relative to clorgyline (times more potent) [2]	MAO-B potency relative to lazabemide (times more potent) [2] [times]	remaining activity at 1 µM ([1]; read-out: Residual Activity (%) MAO-A (1.0 µM), compound at 1.0 µM, mean ± standard error of duplicate experiments) [%]
COc1ccc(C(=O)/C=C/c2ccc(O/N=C(\C)c3ccc(OC)cc3)cc2)cc1 [COE-2]	69.9 ± 0.51	> 10	>38.5	0.26 ± 0.055	27.6 ± 2.44	15.2 ± 0.55	66.5 ± 3.36								
COc1ccc(/C=C/C(=O)c2ccc(O/N=C(\C)c3cccc4ccccc34)cc2)cc1OC [COE-14]	91.1 ± 3.84	> 10	>6.3	1.58 ± 0.031	63.7 ± 1.39	13.2 ± 0.84	62.2 ± 4.19								
C/C(=N\Oc1ccc(/C=C/C(=O)c2ccccc2)cc1)c1ccc(F)cc1 [COE-5]	95.1 ± 2.68	> 10	>8.9	1.12 ± 0.1	57.5 ± 7.01	7.06 ± 1.5	< 50	46.5 ± 0.71							
COc1ccc(/C=C/C(=N/Oc2ccc(/C=C/C(=O)c3ccccc3)cc2)c2ccc(OC)cc2)cc1 [COE-19]	85.3 ± 0.99	> 10	>31.3	0.32 ± 0.015	19.2 ± 3.06	5.35 ± 0.68	< 50	39.0 ± 0.45							
COc1ccc(/C=C/C(=O)c2ccc(ON=C3CCCCC3)cc2)cc1 [COE-10]	67.1 ± 2.02	> 10	>47.6	0.21 ± 0.01	21.6 ± 1.22	9.42 ± 0.031	< 50	47.6 ± 0.93							
COc1ccc(C(/C=C/c2ccccc2)=N\Oc2ccc(C(C)=O)cc2)cc1 [COE-16]	93.4 ± 3.44	> 10		> 10	97.8 ± 0.08	> 40	77.3 ± 6.62								
COc1cccc(/C=C/C(=O)c2ccc(O/N=C(\C)c3cccs3)cc2)c1 [COE-13]	< 50	0.88 ± 0.03	6.8	0.13 ± 0.0069	31.9 ± 9.75	> 40	57.6 ± 1.96		46.2 ± 1.07	2.8	1.1				
COc1cc(/C=C/C(=O)c2ccc(ON=C(c3ccccc3)c3ccccc3)cc2)cc(OC)c1OC [COE-15]	95 ± 3.03	> 10	>10.5	0.95 ± 0.029	36.9 ± 9.49	> 40	56.9 ± 1.4								
COc1cccc(C(=O)/C=C/c2ccc(O/N=C(\C)c3cccc4ccccc34)cc2)c1 [COE-8]	68.6 ± 2.74	7.68 ± 0.34	182.9	0.042 ± 0.021		> 40	70.7 ± 3.26					10.5 ± 0.21			
COc1ccc(/C=C/C(=O)c2ccc(O/N=C(/C=C/c3ccc(OC)cc3)c3ccc(OC)cc3)cc2)cc1 [COE-23]	85.1 ± 4.01	> 10	>66.7	0.15 ± 0.021	25.8 ± 4.78	9.16 ± 0.021	57.3 ± 1.34								
COc1ccc(C(=O)/C=C/c2ccc(O/N=C(\C)c3ccccc3)cc2)cc1 [COE-1]	94.4 ± 2.99	> 10	>35.7	0.28 ± 0.041	29.9 ± 5.25	> 40	77.6 ± 2.64								
Cc1ccc(/C=C/C(=O)c2ccc(O/N=C3\CCc4ccccc43)cc2)cc1 [COE-12]	95.7 ± 2.02	> 10	>37.0	0.27 ± 0.056		> 40	72 ± 1.95					40.5 ± 0.1			
O=C(/C=C/c1ccc(ON=C(c2ccccc2)c2ccccc2)cc1)c1ccc(F)cc1 [COE-7]	91.7 ± 6.43	11 ± 1.22	392.9	0.028 ± 0.0016	2.48 ± 0.15	> 40	76.2 ± 1.02						68 times and 67 times	1.5	
COc1ccc(/C=C/C(=O)c2ccc(O/N=C(\C)c3ccc(F)cc3)cc2)cc1 [COE-11]	86 ± 6.58	> 10	>5.5	1.82 ± 0.022	68.5 ± 1.83	> 40	87.2 ± 0.47								
COc1ccc(C(/C=C/c2ccccc2)=N\Oc2ccc(C(=O)/C=C/c3cc(OC)c(OC)c(OC)c3)cc2)cc1 [COE-24]	88.9 ± 0.98	> 10		> 10	87.4 ± 2.81	> 40	72.5 ± 2.91								
C/C(=N\Oc1ccc(/C=C/C(=O)c2cccc3ccccc23)cc1)c1cccs1 [COE-9]		7.64 ± 0.16	20.6	0.037 ± 0.0057	9.91 ± 1.83	8.39 ± 2.14	< 50	46.7 ± 4.27							71.4 ± 0.51
COc1ccc(/C=C/C(=N/Oc2ccc(C(C)=O)cc2)c2ccc(OC)cc2)cc1 [COE-17]	80.9 ± 2.01	> 10	>13.9	0.72 ± 0.015	17.6 ± 2.77	> 40	80.3 ± 1.39								
COC(=O)c1ccc(O/N=C(/C=C/c2ccc(OC)cc2)c2ccc(OC)cc2)cc1 [COE-18]	88.1 ± 0.99	> 10	>11.8	0.85 ± 0.12	33.3 ± 0.52	10.6 ± 0.26	58.3 ± 5.3								
COc1ccc(/C=C/C(=N/Oc2ccc(/C=C/C(=O)c3ccc(OC)cc3)cc2)c2ccc(OC)cc2)cc1 [COE-20]	89.7 ± 4.51	> 10	>28.6	0.35 ± 0.011	21 ± 0.42	11.2 ± 1.33	60.6 ± 5.74								
COc1ccc(C(/C=C/c2ccccc2)=N\Oc2ccc(/C=C/C(=O)c3ccc(C)cc3)cc2)cc1 [COE-21]	85.8 ± 1.47	15.9 ± 0.59	441.7	0.036 ± 0.0019	-2.19 ± 0.08	9.65 ± 1.2	< 50	49.4 ± 2.90							
